PMC12621043, “Un-LOK-ing a New Approach for Conformational Selective Targeting of STK10 (LOK)” (ACS Medicinal Chemistry Letters, 2025)

Target: T1, PKMYT1A (Homo sapiens, UniProt Q99640)
T1 construct: purchased in-house DSF kinase panel (SGC-style construct names; the trailing letter is the construct ID)
T1 sequence (Q99640 75-362): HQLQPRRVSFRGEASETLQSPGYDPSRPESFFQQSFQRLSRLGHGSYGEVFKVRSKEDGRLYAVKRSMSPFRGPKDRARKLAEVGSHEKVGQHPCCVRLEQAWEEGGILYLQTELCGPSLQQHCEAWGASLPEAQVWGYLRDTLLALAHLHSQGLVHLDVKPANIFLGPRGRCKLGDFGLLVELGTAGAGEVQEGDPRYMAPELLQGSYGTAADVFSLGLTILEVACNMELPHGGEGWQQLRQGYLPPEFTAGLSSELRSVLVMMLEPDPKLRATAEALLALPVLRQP
Test: DSF Tm panel
Format: binding
Details: 10 μM compound

Row | Compound | ΔTm at 10 µM [°C]
1 | O=C(NCc1ccc(C(F)(F)F)cc1)Nc1ccc2cc1OCCOCCNc1ccn3ncc-2c3n1 [compound 28] | 1.1
2 | COc1ccccc1CNC(=O)Nc1ccc2cc1OCCOCCNc1ccn3ncc-2c3n1 [compound 29] | -0.1
3 | COc1cccc(CNC(=O)Nc2ccc3cc2OCCOCCNc2ccn4ncc-3c4n2)c1 [compound 30] | 0
4 | COc1ccc(CNC(=O)Nc2ccc3cc2OCCOCCNc2ccn4ncc-3c4n2)cc1 [compound 31] | 0.3

Target: T2, MAPK10A (Homo sapiens, UniProt P53779)
T2 construct: purchased in-house DSF kinase panel (SGC-style construct names; the trailing letter is the construct ID)
Test: DSF Tm panel
Format: binding
Details: 10 μM compound

T2 sequence (P53779 39-402): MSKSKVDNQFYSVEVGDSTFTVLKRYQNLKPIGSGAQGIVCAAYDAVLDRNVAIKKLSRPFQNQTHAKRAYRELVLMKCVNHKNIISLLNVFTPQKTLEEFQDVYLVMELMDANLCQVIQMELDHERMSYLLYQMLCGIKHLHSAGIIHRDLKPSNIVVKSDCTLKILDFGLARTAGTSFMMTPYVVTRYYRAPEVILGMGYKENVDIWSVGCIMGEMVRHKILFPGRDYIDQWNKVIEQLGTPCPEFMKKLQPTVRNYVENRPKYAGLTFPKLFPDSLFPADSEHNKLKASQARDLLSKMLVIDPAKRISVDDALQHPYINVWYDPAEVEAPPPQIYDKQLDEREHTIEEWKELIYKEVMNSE

Row | Compound | ΔTm at 10 µM [°C]
5 | O=C(NCc1ccc(C(F)(F)F)cc1)Nc1ccc2cc1OCCOCCNc1ccn3ncc-2c3n1 [compound 28] | 1.1
6 | COc1ccccc1CNC(=O)Nc1ccc2cc1OCCOCCNc1ccn3ncc-2c3n1 [compound 29] | 0.3
7 | COc1cccc(CNC(=O)Nc2ccc3cc2OCCOCCNc2ccn4ncc-3c4n2)c1 [compound 30] | 0.5
8 | COc1ccc(CNC(=O)Nc2ccc3cc2OCCOCCNc2ccn4ncc-3c4n2)cc1 [compound 31] | 0.7

Target: T3, PAK1A (Homo sapiens, UniProt Q13153)
T3 construct: purchased in-house DSF kinase panel (SGC-style construct names; the trailing letter is the construct ID)
Test: DSF Tm panel
Format: binding
Details: 10 μM compound

T3 sequence (Q13153 249-545): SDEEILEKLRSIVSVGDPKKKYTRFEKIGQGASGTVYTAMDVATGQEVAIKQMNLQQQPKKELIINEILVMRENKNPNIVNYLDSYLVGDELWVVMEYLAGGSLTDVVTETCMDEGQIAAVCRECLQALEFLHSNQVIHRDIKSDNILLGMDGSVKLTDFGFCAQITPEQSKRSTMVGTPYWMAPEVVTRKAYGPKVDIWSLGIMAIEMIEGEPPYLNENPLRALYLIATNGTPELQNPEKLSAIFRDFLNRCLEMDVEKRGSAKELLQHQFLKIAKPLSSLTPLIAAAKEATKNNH

Row | Compound | ΔTm at 10 µM [°C]
9 | O=C(NCc1ccc(C(F)(F)F)cc1)Nc1ccc2cc1OCCOCCNc1ccn3ncc-2c3n1 [compound 28] | 1.8
10 | COc1ccccc1CNC(=O)Nc1ccc2cc1OCCOCCNc1ccn3ncc-2c3n1 [compound 29] | 0.1
11 | COc1cccc(CNC(=O)Nc2ccc3cc2OCCOCCNc2ccn4ncc-3c4n2)c1 [compound 30] | 0.2
12 | COc1ccc(CNC(=O)Nc2ccc3cc2OCCOCCNc2ccn4ncc-3c4n2)cc1 [compound 31] | 0.5

Target: T4, EPHA5A (Homo sapiens, UniProt P54756)
T4 construct: purchased in-house DSF kinase panel (SGC-style construct names; the trailing letter is the construct ID)
T4 sequence (P54756 653-939): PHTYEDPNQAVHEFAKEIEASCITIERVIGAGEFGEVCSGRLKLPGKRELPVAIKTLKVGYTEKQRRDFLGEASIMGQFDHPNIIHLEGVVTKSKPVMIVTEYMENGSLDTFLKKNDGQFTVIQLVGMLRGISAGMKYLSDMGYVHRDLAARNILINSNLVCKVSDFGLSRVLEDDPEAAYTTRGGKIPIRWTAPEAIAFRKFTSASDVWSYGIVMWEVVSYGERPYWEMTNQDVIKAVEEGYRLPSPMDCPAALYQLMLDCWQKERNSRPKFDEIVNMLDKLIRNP
Test: DSF Tm panel
Format: binding
Details: 10 μM compound

Row | Compound | ΔTm at 10 µM [°C]
13 | O=C(NCc1ccc(C(F)(F)F)cc1)Nc1ccc2cc1OCCOCCNc1ccn3ncc-2c3n1 [compound 28] | 1.9
14 | COc1ccccc1CNC(=O)Nc1ccc2cc1OCCOCCNc1ccn3ncc-2c3n1 [compound 29] | 0.6
15 | COc1cccc(CNC(=O)Nc2ccc3cc2OCCOCCNc2ccn4ncc-3c4n2)c1 [compound 30] | 0.7
16 | COc1ccc(CNC(=O)Nc2ccc3cc2OCCOCCNc2ccn4ncc-3c4n2)cc1 [compound 31] | 1.2

Target: T5, MARK3A (Homo sapiens, UniProt P27448)
T5 construct: purchased in-house DSF kinase panel (SGC-style construct names; the trailing letter is the construct ID)
Test: DSF Tm panel
Format: binding
Details: 10 μM compound

T5 sequence (P27448 56-307): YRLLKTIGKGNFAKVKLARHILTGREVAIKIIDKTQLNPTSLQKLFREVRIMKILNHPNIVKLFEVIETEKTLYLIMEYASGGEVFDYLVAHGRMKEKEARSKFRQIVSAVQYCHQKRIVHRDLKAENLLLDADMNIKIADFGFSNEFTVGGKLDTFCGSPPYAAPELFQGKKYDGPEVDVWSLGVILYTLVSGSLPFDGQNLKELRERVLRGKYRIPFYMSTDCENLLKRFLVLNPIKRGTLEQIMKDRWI

Row | Compound | ΔTm at 10 µM [°C]
17 | O=C(NCc1ccc(C(F)(F)F)cc1)Nc1ccc2cc1OCCOCCNc1ccn3ncc-2c3n1 [compound 28] | 1.4
18 | COc1ccccc1CNC(=O)Nc1ccc2cc1OCCOCCNc1ccn3ncc-2c3n1 [compound 29] | -0.1
19 | COc1cccc(CNC(=O)Nc2ccc3cc2OCCOCCNc2ccn4ncc-3c4n2)c1 [compound 30] | -0.3
20 | COc1ccc(CNC(=O)Nc2ccc3cc2OCCOCCNc2ccn4ncc-3c4n2)cc1 [compound 31] | 0.2

Target: T6, DAPK1 (DAPK1A) (Homo sapiens, UniProt P53355)
T6 construct: purchased in-house DSF kinase panel (SGC-style construct names; the trailing letter is the construct ID)
Test: DSF Tm panel
Format: binding
Details: 10 μM compound

T6 sequence (P53355 1-285): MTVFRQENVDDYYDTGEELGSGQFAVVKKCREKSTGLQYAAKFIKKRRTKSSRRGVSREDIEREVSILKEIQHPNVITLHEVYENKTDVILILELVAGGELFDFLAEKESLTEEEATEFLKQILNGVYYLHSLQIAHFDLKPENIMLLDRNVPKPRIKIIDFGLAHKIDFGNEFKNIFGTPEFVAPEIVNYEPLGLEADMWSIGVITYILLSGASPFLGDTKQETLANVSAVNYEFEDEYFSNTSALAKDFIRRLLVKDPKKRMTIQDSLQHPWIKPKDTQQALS

Row | Compound | ΔTm at 10 µM [°C]
21 | O=C(NCc1ccc(C(F)(F)F)cc1)Nc1ccc2cc1OCCOCCNc1ccn3ncc-2c3n1 [compound 28] | 0.4
22 | COc1ccccc1CNC(=O)Nc1ccc2cc1OCCOCCNc1ccn3ncc-2c3n1 [compound 29] | -0.1
23 | COc1cccc(CNC(=O)Nc2ccc3cc2OCCOCCNc2ccn4ncc-3c4n2)c1 [compound 30] | 0.1
24 | COc1ccc(CNC(=O)Nc2ccc3cc2OCCOCCNc2ccn4ncc-3c4n2)cc1 [compound 31] | 0.3

Target: T7, MST4A (Homo sapiens, UniProt Q9P289)
T7 construct: purchased in-house DSF kinase panel (SGC-style construct names; the trailing letter is the construct ID)
Test: DSF Tm panel
Format: binding
Details: 10 μM compound

T7 sequence (Q9P289 1-300): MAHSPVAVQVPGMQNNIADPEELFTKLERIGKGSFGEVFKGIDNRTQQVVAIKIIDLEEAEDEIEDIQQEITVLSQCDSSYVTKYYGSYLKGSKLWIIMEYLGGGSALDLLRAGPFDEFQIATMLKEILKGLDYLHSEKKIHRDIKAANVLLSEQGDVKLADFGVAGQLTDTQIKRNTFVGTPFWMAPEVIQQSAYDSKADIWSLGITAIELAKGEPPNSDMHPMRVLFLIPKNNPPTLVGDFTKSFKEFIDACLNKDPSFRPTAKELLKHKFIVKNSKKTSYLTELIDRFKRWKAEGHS

Row | Compound | ΔTm at 10 µM [°C]
25 | O=C(NCc1ccc(C(F)(F)F)cc1)Nc1ccc2cc1OCCOCCNc1ccn3ncc-2c3n1 [compound 28] | 2.1
26 | COc1ccccc1CNC(=O)Nc1ccc2cc1OCCOCCNc1ccn3ncc-2c3n1 [compound 29] | 0.2
27 | COc1cccc(CNC(=O)Nc2ccc3cc2OCCOCCNc2ccn4ncc-3c4n2)c1 [compound 30] | 0.3
28 | COc1ccc(CNC(=O)Nc2ccc3cc2OCCOCCNc2ccn4ncc-3c4n2)cc1 [compound 31] | 0.9

Target: T8, MAPK15A (MAPK15HSD) (Homo sapiens, UniProt Q8TD08)
T8 sequence (Q8TD08 13-304 limits assumed): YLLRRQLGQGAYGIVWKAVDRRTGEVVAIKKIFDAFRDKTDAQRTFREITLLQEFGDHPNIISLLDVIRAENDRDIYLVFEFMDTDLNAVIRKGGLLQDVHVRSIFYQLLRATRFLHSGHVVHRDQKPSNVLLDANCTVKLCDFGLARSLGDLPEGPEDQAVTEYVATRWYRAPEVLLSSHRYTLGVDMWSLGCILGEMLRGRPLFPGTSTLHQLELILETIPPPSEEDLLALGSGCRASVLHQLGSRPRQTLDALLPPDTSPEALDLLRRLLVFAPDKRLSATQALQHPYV
Test: DSF Tm panel
Format: binding
Details: 10 μM compound

Row | Compound | ΔTm at 10 µM [°C]
29 | O=C(NCc1ccc(C(F)(F)F)cc1)Nc1ccc2cc1OCCOCCNc1ccn3ncc-2c3n1 [compound 28] | 0.5
30 | COc1ccccc1CNC(=O)Nc1ccc2cc1OCCOCCNc1ccn3ncc-2c3n1 [compound 29] | 3.3
31 | COc1cccc(CNC(=O)Nc2ccc3cc2OCCOCCNc2ccn4ncc-3c4n2)c1 [compound 30] | 2.3
32 | COc1ccc(CNC(=O)Nc2ccc3cc2OCCOCCNc2ccn4ncc-3c4n2)cc1 [compound 31] | 4.1

Target: T9, MAPK9A (Homo sapiens, UniProt P45984)
T9 construct: purchased in-house DSF kinase panel (SGC-style construct names; the trailing letter is the construct ID)
Test: DSF Tm panel
Format: binding
Details: 10 μM compound

T9 sequence (P45984 7-364): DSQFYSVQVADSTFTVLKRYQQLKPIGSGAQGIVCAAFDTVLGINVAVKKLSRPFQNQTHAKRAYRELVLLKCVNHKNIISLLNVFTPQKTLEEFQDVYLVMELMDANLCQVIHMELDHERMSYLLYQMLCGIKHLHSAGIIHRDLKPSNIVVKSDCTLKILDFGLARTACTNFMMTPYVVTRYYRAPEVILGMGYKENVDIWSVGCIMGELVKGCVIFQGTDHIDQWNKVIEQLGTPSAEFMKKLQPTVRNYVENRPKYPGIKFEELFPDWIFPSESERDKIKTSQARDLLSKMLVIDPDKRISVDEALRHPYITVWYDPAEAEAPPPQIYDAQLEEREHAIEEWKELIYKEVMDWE

Row | Compound | ΔTm at 10 µM [°C]
33 | O=C(NCc1ccc(C(F)(F)F)cc1)Nc1ccc2cc1OCCOCCNc1ccn3ncc-2c3n1 [compound 28] | -0.2
34 | COc1ccccc1CNC(=O)Nc1ccc2cc1OCCOCCNc1ccn3ncc-2c3n1 [compound 29] | -2.1
35 | COc1cccc(CNC(=O)Nc2ccc3cc2OCCOCCNc2ccn4ncc-3c4n2)c1 [compound 30] | -1.9
36 | COc1ccc(CNC(=O)Nc2ccc3cc2OCCOCCNc2ccn4ncc-3c4n2)cc1 [compound 31] | -1.3

Target: T10, DYRK2A (Homo sapiens, UniProt Q92630)
T10 construct: purchased in-house DSF kinase panel (SGC-style construct names; the trailing letter is the construct ID)
T10 sequence (Q92630 1-601): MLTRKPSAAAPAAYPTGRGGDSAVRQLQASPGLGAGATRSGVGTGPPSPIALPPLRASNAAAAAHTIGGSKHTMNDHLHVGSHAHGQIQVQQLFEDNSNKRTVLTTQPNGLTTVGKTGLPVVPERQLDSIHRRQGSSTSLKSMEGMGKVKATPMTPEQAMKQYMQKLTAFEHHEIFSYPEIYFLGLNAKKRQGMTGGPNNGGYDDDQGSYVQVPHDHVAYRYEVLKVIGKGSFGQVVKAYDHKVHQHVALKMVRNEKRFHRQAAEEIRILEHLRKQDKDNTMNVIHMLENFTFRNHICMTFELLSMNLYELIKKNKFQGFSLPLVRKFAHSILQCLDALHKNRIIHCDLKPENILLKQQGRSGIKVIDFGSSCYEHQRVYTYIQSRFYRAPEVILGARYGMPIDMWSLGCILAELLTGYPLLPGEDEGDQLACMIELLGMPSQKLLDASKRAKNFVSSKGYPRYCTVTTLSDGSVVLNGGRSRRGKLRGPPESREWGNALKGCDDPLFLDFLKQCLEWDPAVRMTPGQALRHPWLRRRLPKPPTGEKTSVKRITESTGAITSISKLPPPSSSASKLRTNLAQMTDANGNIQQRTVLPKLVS
Test: DSF Tm panel
Format: binding
Details: 10 μM compound

Row | Compound | ΔTm at 10 µM [°C]
37 | O=C(NCc1ccc(C(F)(F)F)cc1)Nc1ccc2cc1OCCOCCNc1ccn3ncc-2c3n1 [compound 28] | 1.2
38 | COc1ccccc1CNC(=O)Nc1ccc2cc1OCCOCCNc1ccn3ncc-2c3n1 [compound 29] | 1.5
39 | COc1cccc(CNC(=O)Nc2ccc3cc2OCCOCCNc2ccn4ncc-3c4n2)c1 [compound 30] | 3.1
40 | COc1ccc(CNC(=O)Nc2ccc3cc2OCCOCCNc2ccn4ncc-3c4n2)cc1 [compound 31] | 1.9

Target: T11, FESA (Homo sapiens, UniProt P07332)
T11 construct: purchased in-house DSF kinase panel (SGC-style construct names; the trailing letter is the construct ID)
Test: DSF Tm panel
Format: binding
Details: 10 μM compound

T11 sequence (P07332 whole entry): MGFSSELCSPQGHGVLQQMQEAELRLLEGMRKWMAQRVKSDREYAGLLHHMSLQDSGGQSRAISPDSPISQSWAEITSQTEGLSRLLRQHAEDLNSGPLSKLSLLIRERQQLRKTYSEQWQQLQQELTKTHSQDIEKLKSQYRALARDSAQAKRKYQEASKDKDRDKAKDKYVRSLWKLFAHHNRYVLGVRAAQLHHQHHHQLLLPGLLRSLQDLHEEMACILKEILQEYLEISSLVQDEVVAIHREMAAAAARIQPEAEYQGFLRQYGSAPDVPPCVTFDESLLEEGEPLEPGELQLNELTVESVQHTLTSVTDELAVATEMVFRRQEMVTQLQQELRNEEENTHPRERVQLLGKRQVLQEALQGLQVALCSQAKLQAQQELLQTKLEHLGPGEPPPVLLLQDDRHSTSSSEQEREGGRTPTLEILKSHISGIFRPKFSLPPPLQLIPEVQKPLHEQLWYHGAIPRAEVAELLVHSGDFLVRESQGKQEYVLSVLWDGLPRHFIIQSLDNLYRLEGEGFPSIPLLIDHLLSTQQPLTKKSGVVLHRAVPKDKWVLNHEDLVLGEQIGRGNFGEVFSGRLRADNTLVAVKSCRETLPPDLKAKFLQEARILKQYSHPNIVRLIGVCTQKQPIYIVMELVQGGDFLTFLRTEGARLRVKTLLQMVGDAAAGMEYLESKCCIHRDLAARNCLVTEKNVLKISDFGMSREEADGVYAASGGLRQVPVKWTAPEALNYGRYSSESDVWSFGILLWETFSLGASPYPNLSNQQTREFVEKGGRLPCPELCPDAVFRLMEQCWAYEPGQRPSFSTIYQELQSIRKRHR

Row | Compound | ΔTm at 10 µM [°C]
41 | O=C(NCc1ccc(C(F)(F)F)cc1)Nc1ccc2cc1OCCOCCNc1ccn3ncc-2c3n1 [compound 28] | 1
42 | COc1ccccc1CNC(=O)Nc1ccc2cc1OCCOCCNc1ccn3ncc-2c3n1 [compound 29] | 2
43 | COc1cccc(CNC(=O)Nc2ccc3cc2OCCOCCNc2ccn4ncc-3c4n2)c1 [compound 30] | 1.4
44 | COc1ccc(CNC(=O)Nc2ccc3cc2OCCOCCNc2ccn4ncc-3c4n2)cc1 [compound 31] | 0.8

Target: T12, MAPK1A (Homo sapiens, UniProt P28482)
T12 construct: purchased in-house DSF kinase panel (SGC-style construct names; the trailing letter is the construct ID)
Test: DSF Tm panel
Format: binding
Details: 10 μM compound

T12 sequence (P28482 whole entry): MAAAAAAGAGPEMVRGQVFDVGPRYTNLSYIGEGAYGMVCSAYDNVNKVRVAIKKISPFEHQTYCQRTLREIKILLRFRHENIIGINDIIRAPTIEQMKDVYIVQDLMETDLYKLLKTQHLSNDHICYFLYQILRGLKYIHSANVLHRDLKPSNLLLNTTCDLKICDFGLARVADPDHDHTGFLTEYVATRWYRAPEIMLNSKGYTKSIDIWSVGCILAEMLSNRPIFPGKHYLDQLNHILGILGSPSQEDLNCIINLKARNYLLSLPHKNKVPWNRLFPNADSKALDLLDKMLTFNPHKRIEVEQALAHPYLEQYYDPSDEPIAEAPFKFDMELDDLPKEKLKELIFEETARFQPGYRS

Row | Compound | ΔTm at 10 µM [°C]
45 | O=C(NCc1ccc(C(F)(F)F)cc1)Nc1ccc2cc1OCCOCCNc1ccn3ncc-2c3n1 [compound 28] | 0.9
46 | COc1ccccc1CNC(=O)Nc1ccc2cc1OCCOCCNc1ccn3ncc-2c3n1 [compound 29] | 0.7
47 | COc1cccc(CNC(=O)Nc2ccc3cc2OCCOCCNc2ccn4ncc-3c4n2)c1 [compound 30] | 0.6
48 | COc1ccc(CNC(=O)Nc2ccc3cc2OCCOCCNc2ccn4ncc-3c4n2)cc1 [compound 31] | 0.9

Target: T13, EPHA7A (Homo sapiens, UniProt Q15375)
T13 construct: purchased in-house DSF kinase panel (SGC-style construct names; the trailing letter is the construct ID)
Test: DSF Tm panel
Format: binding
Details: 10 μM compound

T13 sequence (Q15375 590-899): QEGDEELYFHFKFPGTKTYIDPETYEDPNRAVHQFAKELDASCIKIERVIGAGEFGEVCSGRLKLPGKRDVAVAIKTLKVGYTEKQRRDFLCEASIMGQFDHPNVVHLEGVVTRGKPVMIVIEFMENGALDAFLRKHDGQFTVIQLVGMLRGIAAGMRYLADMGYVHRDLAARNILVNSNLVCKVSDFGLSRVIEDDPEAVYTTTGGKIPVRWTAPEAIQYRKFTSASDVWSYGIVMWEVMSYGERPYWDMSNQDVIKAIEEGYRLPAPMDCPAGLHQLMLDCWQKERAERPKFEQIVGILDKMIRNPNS

Row | Compound | ΔTm at 10 µM [°C]
49 | O=C(NCc1ccc(C(F)(F)F)cc1)Nc1ccc2cc1OCCOCCNc1ccn3ncc-2c3n1 [compound 28] | 3.5
50 | COc1ccccc1CNC(=O)Nc1ccc2cc1OCCOCCNc1ccn3ncc-2c3n1 [compound 29] | 1.1
51 | COc1cccc(CNC(=O)Nc2ccc3cc2OCCOCCNc2ccn4ncc-3c4n2)c1 [compound 30] | 1.5
52 | COc1ccc(CNC(=O)Nc2ccc3cc2OCCOCCNc2ccn4ncc-3c4n2)cc1 [compound 31] | 1.8

Target: T14, CAMK2DA (Homo sapiens, UniProt Q13557)
T14 construct: purchased in-house DSF kinase panel (SGC-style construct names; the trailing letter is the construct ID)
Test: DSF Tm panel
Format: binding
Details: 10 μM compound

T14 sequence (Q13557 11-309): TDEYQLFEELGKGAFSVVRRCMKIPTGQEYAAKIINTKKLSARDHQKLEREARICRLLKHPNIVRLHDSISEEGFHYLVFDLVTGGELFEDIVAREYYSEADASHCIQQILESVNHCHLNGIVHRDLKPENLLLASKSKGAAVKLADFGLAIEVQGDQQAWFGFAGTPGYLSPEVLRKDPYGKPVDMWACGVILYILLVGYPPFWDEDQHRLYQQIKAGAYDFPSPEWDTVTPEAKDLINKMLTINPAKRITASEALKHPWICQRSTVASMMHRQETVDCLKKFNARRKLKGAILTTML

Row | Compound | ΔTm at 10 µM [°C]
53 | O=C(NCc1ccc(C(F)(F)F)cc1)Nc1ccc2cc1OCCOCCNc1ccn3ncc-2c3n1 [compound 28] | 2.7
54 | COc1ccccc1CNC(=O)Nc1ccc2cc1OCCOCCNc1ccn3ncc-2c3n1 [compound 29] | 2.1
55 | COc1cccc(CNC(=O)Nc2ccc3cc2OCCOCCNc2ccn4ncc-3c4n2)c1 [compound 30] | 2.3
56 | COc1ccc(CNC(=O)Nc2ccc3cc2OCCOCCNc2ccn4ncc-3c4n2)cc1 [compound 31] | 2.8
